Reference: patent US11890288B2, “Sulfonamide or sulfinamide compound having effect of inducing BRD4 protein degradation and pharmaceutical use thereof” (MITSUBISHI TANABE PHARMA CORPORATION, priority 2020, dated 2024)
Marks after values point to notes of the source that are not given here.

Tests used:
[1] = system: human stomach cancer SNU-16 cell; test: Cytotoxic action on SNU-16 cells (WST-8, 96 hr); assay type: cell-based; conditions: SNU-16, 96 hr
Method: (§1) The cytotoxic action of the compound of the present invention against human cancer cells was evaluated in vitro. In this experiment, (+)-JQ1 (Nature volume 468, pages 1067-1073 (23 Dec. 2010)) known to have an inhibitory activity on the binding of BRD4 protein and a ligand therefor was used as a positive control drug. Respective cells were suspended in 10% FBS/RPMI1640, seeded in a 96 well plate and cultured at 5% CO2, 37° C. overnight. A test compound dissolved in DMSO was diluted with 10% FBS/RPMI1640 and added and the cells were further cultured for 96 hr. After culturing, the viable cell number was measured using a cell number measurement WST-8 kit (Kishida Chemical Co., Ltd.). As a control, the measurement was performed under conditions free of the test compound. The cytotoxic activity of the compound of the present invention against human prostate cancer LNCaP cells is shown in IC50 value in Table 1. The IC50 value is a concentration of the compound showing 50% cell survival rate when the cell survival rate thereof under compound untreated condition is 100%. It was calculated from the straight line connecting the cell survival rate at two points enclosing the 50% cell survival rate and the compound concentration. […]

[2] = system: human triple negative breast cancer MDA-MB-231 cell; test: Cytotoxic action on MDA-MB-231 cells (WST-8, 96 hr); assay type: cell-based; conditions: MDA-MB-231, 96 hr
Method: as §1

[3] = system: human colon cancer HCT116 cell; test: Cytotoxic action on HCT116 cells (WST-8, 96 hr); assay type: cell-based; conditions: HCT-116, HCT116, 96 hr
Method: as §1

[4] = molecular target: BRD4 protein (Homo sapiens (Human), UniProt O60885); test: BRD4 protein degradation inducing action in LNCaP cells (immunofluorescence, 6 hr); assay type: cell-based; conditions: anti-BRD4 fluorescence intensity
Summary of the method: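 Read-out is BRD4 immunofluorescence intensity (560/572 nm) after 6 hr compound treatment of LNCaP cells in 10% FBS/RPMI1640, with fixation, permeabilization and anti-BRD4 staining. Linear interpolation between the two concentrations flanking 50% of untreated intensity gives DC50.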

[5] = system: human acute myeloid leukemia MV-4-11 cell; test: Cytotoxic action on MV-4-11 cells (WST-8, 96 hr); assay type: cell-based; conditions: MV4-11, MV-4-11, 96 hr
Method: as §1

[6] = system: human acute myeloid leukemia MV-4-11 cell transplanted mouse; test: Antitumor effect in MV-4-11 cell transplanted mouse (tail vein, days 1, 5, 9, 13); assay type: in vivo; conditions: tumor weight on day 15
Method: The in vivo antitumor effect of the compound of the present invention was studied using human acute myeloid leukemia MV-4-11 cell transplanted mouse. MV-4-11 cells were subcutaneously transplanted into the inguinal region of male, 6-week-old BALB/c nude mouse (5×10^6 cells/mouse). The compound of the present invention was administered into the tail vein on days 1, 5, 9, 13 from the time point when the assumed tumor volume determined from ½ab^2 (a is major axis and b is minor axis of tumor) reached about 100 mm^3 (day 1). The control group was administered with a solvent, 20% hydroxypropyl-β-cyclodextrin solution. On day 15, the tumor was isolated, the weight was measured, and the tumor growth inhibitory rate IR (%) was calculated by the following formula. tumor growth inhibitory rate IR (%)={1−(average tumor weight of administration group/average tumor weight of nonadministration control group)}×100(%)

`COC(=O)C[C@@H]1N=C(c2ccc(-c3ccc(C(=O)NCc4ccc(S(=O)(=O)Nc5ccc(C)c6c(C#N)c[nH]c56)cc4)cc3)cc2)c2c(sc(C)c2C)-n2c(C)nnc21` [Example 1, methyl [(6S)-4-{4′-[({4-[(3-cyano-4-methyl-1H-indol-7-yl)sulfamoyl]phenyl}methyl)carbamoyl][1,1′-biphenyl]-4-yl}-2,3,9-trimethyl-6H-thieno[3,2-f][1,2,4]triazolo[4,3-a][1,4]diazepin-6-yl]acetate] was tested, and the IC50 [1] was 6.4 nM, the IC50 [2] was 4 nM and the IC50 [3] was 8.8 nM. The DC50 [4] was 0.15 nM, the IC50 [5] was 0.16 nM and the “tumor growth inhibitory rate” value ([6]; 1 mg/kg/day) was 68.4* %. The “tumor growth inhibitory rate” value ([6]; 3 mg/kg/day) was 95.3* %.
